In patent publication US5750826A, “Bradykinin B2 receptor modified transgenic non-human animals” (Merck & Co., Inc., priority 1996, dated 1998):
Where no end group is shown, it is not given here.

How the values were obtained:
[1] = test system: CPAE cells (bovine pulmonary artery endothelial cells); conditions: cited from earlier work
rat vas deferens = conditions: cited from earlier work
[2] = molecular target: T1, mouse B2 bradykinin receptor (Mus musculus, UniProt P32299); assay: Competition binding using 100 pM [3H]BK at the expressed mouse B2 bradykinin receptor; conditions: expressed mouse B2 receptor, 100 pM [3H]BK
T1 construct: The PCR product begins 99 bp upstream of the initiator methionine codon and ends 49 bp downstream of the stop codon; expressed in transfected cells; host or cells: COS-7 (transient), pcDNAI-Neo
T1 sequence (P32299 1-366 isoform P32299-2): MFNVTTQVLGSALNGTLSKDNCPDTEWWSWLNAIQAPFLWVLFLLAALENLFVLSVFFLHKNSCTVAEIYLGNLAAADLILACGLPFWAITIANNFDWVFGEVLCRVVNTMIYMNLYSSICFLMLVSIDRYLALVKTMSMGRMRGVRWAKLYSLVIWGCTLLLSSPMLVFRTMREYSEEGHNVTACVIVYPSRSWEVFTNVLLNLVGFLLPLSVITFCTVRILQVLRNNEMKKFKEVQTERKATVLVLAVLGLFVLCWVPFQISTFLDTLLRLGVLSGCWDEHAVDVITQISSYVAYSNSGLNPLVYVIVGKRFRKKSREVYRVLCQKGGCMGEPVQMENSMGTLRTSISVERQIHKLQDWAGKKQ
Description: Binding assays were then performed to determine receptor antagonist or agonist interaction. The assays utilized in the instant invention follow the method of Manning et al., J. Pharmacol. Exp. Ther., 237, 504-512 (1986). [^3 H]BK at various concentrations was incubated for 60 minutes at 25° C. with approximately 50ug membrane protein from COS-7 cells in a volume of 1 ml. The assay was terminated by filtration over Whatman GF/B filters presoaked for 3 hours in 0.1 % polyethyleneimine using a BRANDEL M-24 CELL […] (BRANDEL, Gaithersburg, Md.). The tubes were rinsed two times with 4 ml ice-cold […] and the filter bound radioactivity was quantitated by liquid scintillation counting. Nonspecific binding was determined by performing incubation in the presence of 1 uM BK and generally represents less than 5% of the total binding at 100pM ^3 H]BK. Competition binding experiments, in the presence of 100pM[^3 H]BK, were performed with varying concentrations of the test compound(s). The competition and saturation experiments were analyzed using the EBDA program of McPherson. See McPherson, G.A. J Pharmacol. Methods 14, 213-218 (1985).
To verify the pharmacological properties of the mouse bradykinin B2 receptor the coding sequence of the mouse B2 bradykinin receptor was isolated by PCR (Perkin Elmer/Cetus) using a Techne thermocycler with the template being the EcoR I by Hind III genomic fragment in pSP72 and the 5' primer 5'-[…]-3' (SEQ.ID.NO.:8) and the 3' primer 5'- […]-3' (SEQ.ID.NO.:9). The PCR product was subcloned into the Hind III and Xba I sites of the eukaryotic expression vector pcDNAI-Neo (Invitrogen). The PCR product begins 99 bp upstream of the initiator methionine codon and ends 49 bp downstream of the stop codon. The DNA sequence analysis using Sequenase (US Biochemical) of the subcloned PCR product confirmed that the sequence was identical to that in the original genomic fragment.

guinea pig ileum mucosa = conditions: nanomolar concentrations, serosal surface; cited from earlier work
[3] = test system: mock transfected COS-7 cells; assay: Binding of BK to membranes of mock transfected COS-7 cells; conditions: membranes from mock transfected COS-7 cells
Description: In order to enable expression of the cDNA that encodes for the B2 bradykinin receptor, COS-7 cells were transfected using LIPOFECTIN (BRL, Gaithersburg, Md.) with 50ug/10^7 cells of the B2 receptor cDNA subcloned into the eukaryotic expression vector pcDNA I-Neo (Invitrogen). Cells were then harvested after 72 hours and the membranes containing the expressed receptor protein were prepared by scraping the cells in phosphate buffered saline solution and centrifuging for ten minutes at 500× g. The cell pellet was then resuspended and homogenized with a Polytron in 20 mM N-tris(hydroxymethyl)methyl-2-aminoethane sulfonic acid (TES,pH 6.8 at room temperature) buffer containing 1 mM 1, 10 phenanthroline. The homogenate was then centrifuged for ten minutes at 500 × g. […]
Binding assays were then performed to determine receptor antagonist or agonist interaction. […] The tubes were rinsed two times with 4 ml ice-cold […] and the filter bound radioactivity was quantitated by liquid scintillation counting. […] The competition and saturation experiments were analyzed using the EBDA program of McPherson. […]

Swiss 3T3 fibroblasts = conditions: cited from earlier work
[4] = molecular target: T2, human B2 bradykinin receptor (Homo sapiens, UniProt P30411); assay: Competition binding against 100 pM [3H]BK at the cloned human B2 receptor (COS-7)
T2 construct: placing the entire B2 clone under the control of the CMV promoter; expressed in transfected cells
T2 sequence (P30411 1-364 isoform P30411-2): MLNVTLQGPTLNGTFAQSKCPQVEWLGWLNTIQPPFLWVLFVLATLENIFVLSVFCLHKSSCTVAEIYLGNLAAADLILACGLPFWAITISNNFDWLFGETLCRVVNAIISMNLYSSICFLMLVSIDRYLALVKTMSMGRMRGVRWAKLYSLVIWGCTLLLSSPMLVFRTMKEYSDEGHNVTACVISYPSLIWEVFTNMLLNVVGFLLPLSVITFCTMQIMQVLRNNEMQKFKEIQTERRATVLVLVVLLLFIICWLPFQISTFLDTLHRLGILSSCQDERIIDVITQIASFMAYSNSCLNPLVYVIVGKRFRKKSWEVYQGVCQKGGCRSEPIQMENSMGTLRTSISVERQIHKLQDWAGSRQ
Description: In order to enable expression of the cDNA that encodes for the B2 bradykinin receptor, COS-7 cells were transfected using LIPOFECTIN (BRL, Gaithersburg, Md.) with 50ug/10^7 cells of the B2 receptor cDNA subcloned into the eukaryotic expression vector pcDNA I-Neo (Invitrogen). Cells were then harvested after 72 hours and the membranes containing the expressed receptor protein were prepared by scraping the cells in phosphate buffered saline solution and centrifuging for ten minutes at 500× g. The cell pellet was then resuspended and homogenized with a Polytron in 20 mM N-tris(hydroxymethyl)methyl-2-aminoethane sulfonic acid (TES,pH 6.8 at room temperature) buffer containing 1 mM 1, 10 phenanthroline. The homogenate was then centrifuged for ten minutes at 500 × g. The final membrane pellet was resuspended in assay buffer (TES plus 0.1% protease free bovine serum albumin, 5 uM MK-422 (enalaprilat; Gross et al., 1981) and 140 ug/ml bacitracin using a motor-driven teflon-glass tissue homogenizer. Protein determination was performed by the method of Bradford using bovine IgG as the standard. See Bradford, M.A. Anal. Biochem. 72, 248-254 (1976).
Binding assays were then performed to determine receptor antagonist or agonist interaction. The assays utilized in the instant invention follow the method of Manning et al., J. Pharmacol. Exp. Ther., 237, 504-512 (1986). […] (BRANDEL, Gaithersburg, Md.). The tubes were rinsed two times with 4 ml ice-cold […] and the filter bound radioactivity was quantitated by liquid scintillation counting. […] The competition and saturation experiments were analyzed using the EBDA program of McPherson. See McPherson, G.A. J Pharmacol. Methods 14, 213-218 (1985).

## RPPGFSPFR [BK]
[1]
  activity of phosphatidylcholine-specific PLC: stimulates
Rat vas deferens; musculotropic/postjunctional action
  contraction of smooth muscle / muscle tone: contracted the smooth muscle generating an increased muscle tone
Rat vas deferens; neurogenic/presynaptic effect
  magnitude of the muscular response to electrically driven twitches: potentiated
[2]
  affinity: high (subnanomolar) affinity
Guinea pig ileum mucosa
  transepithelial potential difference (p.d.) and short circuit current (ISC): rapidly increased
[3]
  BK specific binding sites: did not contain any detectable BK specific binding sites
Swiss 3T3 fibroblasts
  phospholipase C mediated InsP formation and PGE-2 synthesis: stimulated
[4]
  specificity of binding (rank order): BK>lys-BK>met-lys-BK
